Where a name gives a salt, the structure may show the parent alone.

T1 sequence (P09619 with tags, fused parts or gaps): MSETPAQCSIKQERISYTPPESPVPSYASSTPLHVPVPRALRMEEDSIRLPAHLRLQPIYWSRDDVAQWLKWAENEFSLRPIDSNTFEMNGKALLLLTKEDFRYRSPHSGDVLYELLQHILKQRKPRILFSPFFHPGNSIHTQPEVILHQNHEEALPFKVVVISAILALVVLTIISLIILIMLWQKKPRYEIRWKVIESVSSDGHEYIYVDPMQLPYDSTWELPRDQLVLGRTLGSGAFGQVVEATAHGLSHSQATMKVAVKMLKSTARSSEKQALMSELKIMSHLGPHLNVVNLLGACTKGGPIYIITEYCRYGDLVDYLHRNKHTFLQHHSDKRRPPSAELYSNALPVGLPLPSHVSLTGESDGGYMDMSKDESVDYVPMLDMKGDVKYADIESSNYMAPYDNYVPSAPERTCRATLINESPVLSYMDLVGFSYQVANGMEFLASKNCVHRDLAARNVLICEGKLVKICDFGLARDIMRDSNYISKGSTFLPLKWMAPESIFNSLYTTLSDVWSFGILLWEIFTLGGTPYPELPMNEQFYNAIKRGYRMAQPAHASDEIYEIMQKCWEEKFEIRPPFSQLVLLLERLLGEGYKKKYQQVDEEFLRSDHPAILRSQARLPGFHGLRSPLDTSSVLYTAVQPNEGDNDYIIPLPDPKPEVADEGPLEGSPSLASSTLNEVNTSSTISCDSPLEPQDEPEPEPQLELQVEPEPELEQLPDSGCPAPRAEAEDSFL

The first data set has as its target T1, fusion protein Tel/PDGF-R beta (BaF3 Tel/PDGF cells) (Homo sapiens, UniProt P09619).
T1 construct: the transmembrane and intracellular part of the PDGF-R beta receptor; N-terminal part of transcription factor Tel (ETV6, own knowledge: UniProt P41212), containing the oligomerization domain; expressed in transfected cells; host or cells: murine hematopoietic cell line BaF/3 (BaF3 Tel/PDGF); the other entry of the earlier key: ETV6 (P41212, Transcription factor ETV6)
In words: Inhibition of PDGF beta receptor tyrosine kinase activity: proliferation of BaF3 Tel/PDGF cells. In kind it is cell-based, murine. As to conditions: 72 h incubation, viable cells by cellular ATP (CellTiter-Glo); read-out: IC50, concentration which inhibits 50% of the proliferation of the Baf3 tel/PDGF cells. An excerpt: The inhibitory activity on the PDGF receptor kinases is given by the concentration which inhibits 50% of the proliferation activity of Baf3 tel/PDGF cells respectively. The inhibitory activity on p70S6 kinase is given by the concentration which inhibits 50% of the phosphorylation of the peptide substrate derived from the S6 ribosomal protein (AKRRRLSSLRA, Upstate).
Measurement of the inhibition of the PDGF beta receptor (PDGF-Rβ) tyrosine kinase activity (Baf-3 tel/PDGFRβ):
This test consists in evaluating the effects of the compounds on the PDGF beta receptor tyrosine kinase activity.
The inhibitory effect of the compounds according to the invention toward the PDGF-R receptor tyrosine kinase activity was evaluated on the hematopoietic murine cell line BaF/3 transfected with a plasmid encoding the fusion protein Tel/PDGF-R beta. This fusion protein is found in chronic myelomonocytic myeloid leukemias (CMML). It comprises the N-terminal part of the transcription factor Tel and the transmembrane and intracellular part of the PDGF-R beta receptor. This fusion protein is present in dimerized form (presence of an oligomerization domain in the N-terminal part of Tel) and therefore leads to the constitutive activity of the PDGF-R beta kinase domain. This BaF3 Tel/PDGF line has been described in the literature several times and in particular in detail in the article by CARROLL, M. et al., PNAS, 1996, 93, 14845-14850, CARROLL, M. et al., Blood 2002, 99, 14845-14850.
The BaF3 Tel/PDGF cells are washed with phosphate buffer and inoculated in 96-well plates, at the density of 5×10^4 cells/ml ([…]), in RPMI 1640 containing 10% FCS, in the presence or absence of the compounds to be tested. After 72 h of incubation, the viable cells are quantified by measuring the cellular ATP using the kit CellTiter-Glo®(Promega, Cat G7571). The cells are treated according to the instructions given by the kit supplier and the luminescence is measured with the aid of a Luminoskan (Ascent, Labsystem) with the following parameters: measurement: single; integration time: 1000 ms, lag time: 5 s.
It is thus apparent that the compounds according to the invention have an inhibitory activity on the PDGF-R beta tyrosine kinase activity. This activity is given by the concentration which inhibits 50% of the proliferation of the Baf3 tel/PDGF cells (IC50).
`CCn1c(N)c(C(=O)NC)c(=O)c2ccc(-c3ccc(NS(=O)(=O)c4cccc(F)c4)c(F)c3)nc21` [compound No. 2, 2-amino-1-ethyl-7-(3-fluoro-4-{[(3-fluorophenyl)sulfonyl]amino}phenyl)-N-methyl-4-oxo-1,4-dihydro-1,8-naphthyridine-3-carboxamide]: the IC50 was determined as 36 nM.
Regarding `CCn1c(N)c(C(=O)NC)c(=O)c2ccc(-c3ccc(NS(=O)(=O)c4ccccc4F)c(F)c3)nc21` [compound No. 20, 2-amino-1-ethyl-7-(3-fluoro-4-{[(2-fluorophenyl)sulfonyl]amino}phenyl)-N-methyl-4-oxo-1,4-dihydro-1,8-naphthyridine-3-carboxamide], the IC50 was 280 nM.

Tested on in the next data set: not given
Test: not given
Details: not given
Usually melting point stands for the temperature, or range, at which the solid turns liquid. `CCn1c(N)c(C(=O)NC)c(=O)c2ccc(-c3ccc(NS(=O)(=O)Cc4cccnc4)c(F)c3)nc21` (as salt: HCl) [compound No. 1, 2-amino-1-ethyl-7-(3-fluoro-4-{[(pyridin-3-ylmethyl)sulfonyl]amino}phenyl)-N-methyl-4-oxo-1,4-dihydro-1,8-naphthyridine-3-carboxamide] returned a melting point of 220 to 223 °C.
Turning to `CCn1c(N)c(C(=O)NC)c(=O)c2ccc(-c3ccc(NS(=O)(=O)CCN(C)C)c(F)c3)nc21` (as salt: HCl) [compound No. 4, 2-amino-7-[4-({[2-(dimethylamino)ethyl]sulfonyl}amino)-3-fluorophenyl]-1-ethyl-N-methyl-4-oxo-1,4-dihydro-1,8-naphthyridine-3-carboxamide], the melting point lay within 268 to 270 °C.
Same read-out and setting: the figure for `CCn1c(N)c(C(=O)NC)c(=O)c2ccc(-c3ccc(NS(=O)(=O)Cc4cccc(N)c4)c(F)c3)nc21` (as salt: HCl) [compound No. 5, 2-amino-7-(4-{[(3-aminobenzyl)sulfonyl]amino}-3-fluorophenyl)-1-ethyl-N-methyl-4-oxo-1,4-dihydro-1,8-naphthyridine-3-carboxamide] is greater than 260 °C; for `CCn1c(N)c(C(=O)NC)c(=O)c2ccc(-c3ccc(NS(=O)(=O)c4cn(C)cn4)c(F)c3)nc21` (as salt: HCl) [compound No. 6, 2-amino-1-ethyl-7-(3-fluoro-4-{[(1-methyl-1H-imidazol-4-yl)sulfonyl]amino}phenyl)-N-methyl-4-oxo-1,4-dihydro-1,8-naphthyridine-3-carboxamide] it is greater than 300 °C.
The same measure, in the same setting: the figure for `CCn1c(N)c(C(=O)NC)c(=O)c2ccc(-c3ccc(NS(=O)(=O)c4ccc(N5CCOCC5)nc4)c(F)c3)nc21` (as salt: HCl) [compound No. 26, 2-amino-1-ethyl-7-[3-fluoro-4-({[6-(morpholin-4-yl)pyridin-3-yl]sulfonyl}amino)phenyl]-N-methyl-4-oxo-1,4-dihydro-1,8-naphthyridine-3-carboxamide] is greater than 260 °C; for `CCn1c(N)c(C(=O)NC)c(=O)c2ccc(-c3ccc(NS(=O)(=O)Cc4ccccn4)c(F)c3)nc21` (as salt: HCl) [compound No. 27, 2-amino-1-ethyl-7-(3-fluoro-4-{[(pyridin-2-ylmethyl)sulfonyl]amino}phenyl)-N-methyl-4-oxo-1,4-dihydro-1,8-naphthyridine-3-carboxamide] it is 260 °C.
Same read-out and setting: the figure for `CCn1c(N)c(C(=O)NC)c(=O)c2ccc(-c3ccc(NS(=O)(=O)c4cccc(F)c4)c(F)c3)nc21` [compound No. 2, 2-amino-1-ethyl-7-(3-fluoro-4-{[(3-fluorophenyl)sulfonyl]amino}phenyl)-N-methyl-4-oxo-1,4-dihydro-1,8-naphthyridine-3-carboxamide] is 256 °C; for `C=CS(=O)(=O)Nc1ccc(-c2ccc3c(=O)c(C(=O)NC)c(N)n(CC)c3n2)cc1F` [compound No. 3, 2-amino-7-{4-[(ethenylsulfonyl)amino]-3-fluorophenyl}-1-ethyl-N-methyl-4-oxo-1,4-dihydro-1,8-naphthyridine-3-carboxamide] it is greater than 260 °C; for `CCCCS(=O)(=O)Nc1ccc(-c2ccc3c(=O)c(C(=O)NC)c(N)n(CC)c3n2)cc1F` [compound No. 7, 2-amino-7-{4-[(butylsulfonyl)amino]-3-fluorophenyl}-1-ethyl-N-methyl-4-oxo-1,4-dihydro-1,8-naphthyridine-3-carboxamide] it is 165 to 167 °C.
Turning to `CCn1c(N)c(C(=O)NC)c(=O)c2ccc(-c3ccc(NS(=O)(=O)c4c(Cl)cccc4Cl)c(F)c3)nc21` [compound No. 11, 2-amino-7-(4-{[(2,6-dichlorophenyl)sulfonyl]amino}-3-fluorophenyl)-1-ethyl-N-methyl-4-oxo-1,4-dihydro-1,8-naphthyridine-3-carboxamide], the melting point stood at 321 °C.
For `CCn1c(N)c(C(=O)NC)c(=O)c2ccc(-c3ccc(NS(=O)(=O)c4cc(Cl)ccc4Cl)cc3Cl)nc21` [compound No. 12, 2-amino-7-(2-chloro-4-{[(2,5-dichlorophenyl)sulfonyl]amino}phenyl)-1-ethyl-N-methyl-4-oxo-1,4-dihydro-1,8-naphthyridine-3-carboxamide], the melting point came to 323 °C.
Still for that read-out and setting: the figure for `CCn1c(N)c(C(=O)NC)c(=O)c2ccc(-c3ccc(NS(=O)(=O)c4cccc(Cl)c4Cl)cc3Cl)nc21` [compound No. 13, 2-amino-7-(2-chloro-4-{[(2,3-dichlorophenyl)sulfonyl]amino}phenyl)-1-ethyl-N-methyl-4-oxo-1,4-dihydro-1,8-naphthyridine-3-carboxamide] is 239 °C; for `CCn1c(N)c(C(=O)NC)c(=O)c2ccc(-c3ccc(NS(=O)(=O)c4cccc(Cl)c4Cl)c(C)c3)nc21` [compound No. 15, 2-amino-7-(4-{[(2,3-dichlorophenyl)sulfonyl]amino}-3-methylphenyl)-1-ethyl-N-methyl-4-oxo-1,4-dihydro-1,8-naphthyridine-3-carboxamide] it is 299 °C; for `CCn1c(N)c(C(=O)NC)c(=O)c2ccc(-c3ccc(NS(C)(=O)=O)cc3)nc21` [compound No. 16, 2-amino-1-ethyl-N-methyl-7-{4-[(methylsulfonyl)amino]phenyl}-4-oxo-1,4-dihydro-1,8-naphthyridine-3-carboxamide] it is greater than 300 °C.
On the same count and under the same terms, the figure for `CCn1c(N)c(C(=O)NC)c(=O)c2ccc(-c3ccc(NS(=O)(=O)c4cccc(Cl)c4Cl)cc3)nc21` [compound No. 17, 2-amino-7-(4-{[(2,3-dichlorophenyl)sulfonyl]amino}phenyl)-1-ethyl-N-methyl-4-oxo-1,4-dihydro-1,8-naphthyridine-3-carboxamide] is 210 °C; for `CCn1c(N)c(C(=O)NC)c(=O)c2ccc(-c3ccc(NS(=O)(=O)c4ccccc4Cl)cc3)nc21` [compound No. 19, 2-amino-7-(4-{[(2-chlorophenyl)sulfonyl]amino}phenyl)-1-ethyl-N-methyl-4-oxo-1,4-dihydro-1,8-naphthyridine-3-carboxamide] it is greater than 260 °C; for `CCn1c(N)c(C(=O)NC)c(=O)c2ccc(-c3ccc(NS(=O)(=O)c4ccccc4F)c(F)c3)nc21` [compound No. 20, 2-amino-1-ethyl-7-(3-fluoro-4-{[(2-fluorophenyl)sulfonyl]amino}phenyl)-N-methyl-4-oxo-1,4-dihydro-1,8-naphthyridine-3-carboxamide] it is greater than 260 °C.
`CCn1c(N)c(C(=O)NC)c(=O)c2ccc(-c3ccc(NS(=O)(=O)c4ccc(Cl)cc4)c(F)c3)nc21` [compound No. 21, 2-amino-7-(4-{[(4-chlorophenyl)sulfonyl]amino}-3-fluorophenyl)-1-ethyl-N-methyl-4-oxo-1,4-dihydro-1,8-naphthyridine-3-carboxamide]: the melting point was greater than 260 °C.
On the same count and under the same terms, the figure for `CCn1c(N)c(C(=O)NC)c(=O)c2ccc(-c3ccc(NS(=O)(=O)c4cccc(Cl)c4)c(F)c3)nc21` [compound No. 22, 2-amino-7-(4-{[(3-chlorophenyl)sulfonyl]amino}-3-fluorophenyl)-1-ethyl-N-methyl-4-oxo-1,4-dihydro-1,8-naphthyridine-3-carboxamide] is greater than 260 °C; for `CCn1c(N)c(C(=O)NC)c(=O)c2ccc(-c3ccc(NS(=O)(=O)c4ccc(F)c(F)c4)c(F)c3)nc21` [compound No. 23, 2-amino-7-(4-{[(3,4-difluorophenyl)sulfonyl]amino}-3-fluorophenyl)-1-ethyl-N-methyl-4-oxo-1,4-dihydro-1,8-naphthyridine-3-carboxamide] it is greater than 260 °C; for `CCn1c(N)c(C(=O)NC)c(=O)c2ccc(-c3ccc(NS(=O)(=O)c4cccc(OC)c4)c(F)c3)nc21` [compound No. 25, 2-amino-1-ethyl-7-(3-fluoro-4-{[(3-methoxyphenyl)sulfonyl]amino}phenyl)-N-methyl-4-oxo-1,4-dihydro-1,8-naphthyridine-3-carboxamide] it is greater than 260 °C.
